Literature values, collected in patent publication US8349557B2 (priority 2008, dated 2013).
Read-outs that look alike come from different tables or passages of the source.

How the values were obtained:
skeletal muscle = settings: in some patients
cerebellar granule cells = settings: 24 hours
[1] = tested on: rat hepatoma cell line, H-4-II-E cells

| SMILES | degradation of long-lived proteins (lysosomes) | lysosomal pH (lysosomes) | autophagic vacuolation in skeletal muscle (skeletal muscle) | V-ATPase activity (V-ATPase; 0.3 nM bafilomycin) | V-ATPase activity (V-ATPase; 10 nM bafilomycin) | V-ATPase activity (V-ATPase; 100 nM bafilomycin (high-dose)) | vacuoles in the cytoplasm (cerebellar granule cells; 0.3 nM bafilomycin) | vacuoles in the cytoplasm (cerebellar granule cells; 10 nM bafilomycin) | effect on macroautophagy / autophagosome formation [1] | effect on macroautophagy / autophagosome formation ([1]; non-starved cells, 100 nM bafilomycin, one hour) |
| --- | --- | --- | --- | --- | --- | --- | --- | --- | --- | --- |
| CCN(CC)CCCC(C)Nc1ccnc2cc(Cl)ccc12 (stereo not shown) [chloroquine] | impairs the degradation of long-lived proteins | raises their pH | florid autophagic vacuolation |  |  |  |  |  |  |  |
| CO/C1=C\C(C)=C\[C@@H](C)[C@@H](O)[C@@H](C)C/C(C)=C/C=C/[C@H](OC)[C@@H]([C@@H](C)[C@@H](O)[C@H](C)[C@@]2(O)C[C@@H](O)[C@H](C)[C@@H](C(C)C)O2)OC1=O [bafilomycin] |  |  |  | 40-50 % of normal | below 10% | completely eliminates V-ATPase activity | not present | accumulation of large, swollen, single-membraned vacuoles in the cytoplasm with electron-dense deposits | explosive autophagosome formations occupying vast portions of the cytoplasm | no significant effect |
